pEC50: −log10 of the molar value.

The pEC50 is the negative decadic logarithm of the EC50, by convention in mol/L.

In the assay the test system is YAP/TAZ-TEAD transcription. Briefly: Reporter gene assay for measuring the inhibition of YAP/TAZ-TEAD transcription (TEAD-responsive element luciferase reporter in Hek293T cells). In kind it is cell-based. Particulars: Homo sapiens, HEK-293T, 24 hours incubation. The protocol: Hek293T cells are cultured in DMEM supplemented with 10% fetal bovine serum, Sodium pyruvate, Sodium bicarbonate, L-glutamine. The cells are harvested and transiently transfected with TEAD-responsive element luciferase reporter. Transfected cells are plated in 384-wells plate containing pre-diluted compounds. After 24 hours incubation at 37° C./5% CO2, assay plates were cooled down to RT and levelled to an equal volume per well, prior to the addition of 25 uL luciferase substrate SteadyLite (Perkin Elmer)/well. The plate was shaken for 10 min at 600 rpm, centrifuged for 1 min at 500 rpm and measured with an Envision reader (PerkinElmer). The amount of relative light units produced by the TEAD reporter is used to calculated percent of inhibition.
The percent of reporter inhibition was calculated in the presence of a positive control inhibitor (100% inhibition) versus a condition with the presence of the vehicle basal activity of the reporter (0% inhibition). The ability of a test compound to inhibit this activity was determined as: Percentage inhibition=[1−((RLU determined in the presence of vehicle−RLU determined for sample with test compound present) divided by (RLU determined in the presence of vehicle−RLU determined for sample with positive control inhibitor))]*100
The activities of the example compounds tested are depicted in the table below. The activity ranges A, B and C refer to EC50 values in the reporter gene assay as described as follows: “A”: EC50<1 μM; “B”: 1 μM s EC50≤20 μM and “C”: EC50>20 μM, NT=not tested.
In turn, `Cn1ccc(-c2cc(-c3ccccc3)ccc2NCCC(=O)O)n1` [compound 063, 3-((3-(1-methyl-1H-pyrazol-3-yl)-[1,1′-biphenyl]-4-yl)amino)propanoic acid] gave a pEC50 of over 6.00.
As for `CNC(=O)CCNc1ccc(-c2ccccc2)cc1-c1ccn(C)n1` [compound 064, N-methyl-3-((3-(1-methyl-1H-pyrazol-3-yl)-[1,1′-biphenyl]-4-yl)amino)propanamide], the figure is over 6.00; as for `CSCCNc1ccc(-c2ccccc2)cc1-c1ccn(Cc2cccnc2)n1` [compound 065, N-(2-(methylthio)ethyl)-3-(1-(pyridin-3-ylmethyl)-1H-pyrazol-3-yl)-[1,1′-biphenyl]-4-amine], 4.70 to 6.00; as for `CS(=N)(=O)CCNc1ccc(-c2ccccc2)cc1-c1ccn(Cc2cccnc2)n1` (centres unmarked) [compound 066, imino(methyl)(2-((3-(1-(pyridin-3-ylmethyl)-1H-pyrazol-3-yl)-[1,1′-biphenyl]-4-yl)amino)ethyl)-λ^6-sulfanone], over 6.00.
In the case of `CNS(=O)(=O)CCN(C)c1ccc(-c2ccccc2)cc1-c1ccn(Cc2cccnc2)n1` [compound 067, N-methyl-2-(methyl(3-(1-(pyridin-3-ylmethyl)-1H-pyrazol-3-yl)-[1,1′-biphenyl]-4-yl)amino)ethane-1-sulfonamide], the pEC50 was 4.70 to 6.00.
The figure for `O=S1(=O)CCC(Nc2ccc(-c3ccccc3)cc2-c2ccn(Cc3cccnc3)n2)CC1` [compound 068, 4-((3-(1-(pyridin-3-ylmethyl)-1H-pyrazol-3-yl)-[1,1′-biphenyl]-4-yl)amino)tetrahydro-2H-thiopyran-1,1-dioxide] is 4.70 to 6.00.
The figure for `O=S1(=O)CCC(Nc2cc(-c3ccccc3)cc(-c3ccn(Cc4cccnc4)n3)c2)CC1` [compound 069, 4-((5-(1-(pyridin-3-ylmethyl)-1H-pyrazol-3-yl)-[1,1′-biphenyl]-3-yl)amino)tetrahydro-2H-thiopyran 1,1-dioxide] is 4.70 to 6.00; for `c1ccc(-c2ccc(NC3CCCOC3)c(-c3ccn(Cc4cccnc4)n3)c2)cc1` (centres unmarked) [compound 070, N-(3-(1-(pyridin-3-ylmethyl)-1H-pyrazol-3-yl)-[1,1′-biphenyl]-4-yl)tetrahydro-2H-pyran-3-amine] it is over 6.00; for `c1ccc(-c2cc(NC3CCCOC3)cc(-c3ccn(Cc4cccnc4)n3)c2)cc1` (centres unmarked) [compound 071, N-(5-(1-(pyridin-3-ylmethyl)-1H-pyrazol-3-yl)-[1,1′-biphenyl]-3-yl)tetrahydro-2H-pyran-3-amine] it is 4.70 to 6.00.
The figure for `O=C1CC(Nc2ccc(-c3ccccc3)cc2-c2ccn(Cc3cccnc3)n2)CCN1` (centres unmarked) [compound 072, 4-((3-(1-(pyridin-3-ylmethyl)-1H-pyrazol-3-yl)-[1,1′-biphenyl]-4-yl)amino)piperidin-2-one] is 4.70 to 6.00; for `O=C1CC(Nc2cc(-c3ccccc3)cc(-c3ccn(Cc4cccnc4)n3)c2)CCN1` (centres unmarked) [compound 073, 4-((5-(1-(pyridin-3-ylmethyl)-1H-pyrazol-3-yl)-[1,1′-biphenyl]-3-yl)amino)piperidin-2-one] it is 4.70 to 6.00; for `CNC(=O)CNc1ccc(-c2ccccc2)cc1-c1ccn(Cc2cccnc2)n1` [compound 074, N-methyl-2-((3-(1-(pyridin-3-ylmethyl)-1H-pyrazol-3-yl)-[1,1′-biphenyl]-4-yl)amino)acetamide] it is 4.70 to 6.00.
As to `CNC(=O)CNc1cc(-c2ccccc2)cc(-c2ccn(Cc3cccnc3)n2)c1` [compound 076, N-methyl-2-((5-(1-(pyridin-3-ylmethyl)-1H-pyrazol-3-yl)-[1,1′-biphenyl]-3-yl)amino)acetamide], the pEC50 is 4.70 to 6.00.
Regarding `CCC(=O)NCCNc1ccc(-c2ccccc2)cc1-c1ccn(Cc2cccnc2)n1` [compound 077], the pEC50 was over 6.00.
In turn, `O=C(O)CNc1cc(-c2ccccc2)cc(-c2ccn(Cc3cccnc3)n2)c1` [compound 078, (5-(1-(pyridin-3-ylmethyl)-1H-pyrazol-3-yl)-[1,1′-biphenyl]-3-yl)glycine] showed a pEC50 of under 4.70.
Regarding `CNS(=O)(=O)CCC(=O)Nc1ccc(-c2ccccc2)cc1-c1ccn(Cc2cccnc2)n1` [compound 079, 3-(N-methylsulfamoyl)-N-(3-(1-(pyridin-3-ylmethyl)-1H-pyrazol-3-yl)-[1,1′-biphenyl]-4-yl)propanamide], the pEC50 is 4.70 to 6.00.
The figure for `C=CC(=O)Nc1ccc(-c2ccccc2)cc1-c1ccn(Cc2cccnc2)n1` [compound 080, N-(3-(1-(pyridin-3-ylmethyl)-1H-pyrazol-3-yl)-[1,1′-biphenyl]-4-yl)acrylamide] is 4.70 to 6.00.
Molecule `N#CCC(=O)Nc1ccc(-c2ccccc2)cc1-c1ccn(Cc2cccnc2)n1` [compound 081, 2-cyano-N-(3-(1-(pyridin-3-ylmethyl)-1H-pyrazol-3-yl)-[1,1′-biphenyl]-4-yl)acetamide] gave a pEC50 of 4.70 to 6.00.
The figure for `CNS(=O)(=O)CC(=O)Nc1ccc(-c2ccccc2)cc1-c1ccn(Cc2cccnc2)n1` [compound 082, 2-(N-methylsulfamoyl)-N-(3-(1-(pyridin-3-ylmethyl)-1H-pyrazol-3-yl)-[1,1′-biphenyl]-4-yl)acetamide] is 4.70 to 6.00; for `N#CCCNc1ccc(-c2ccccc2)cc1-c1ccn(Cc2cccnc2)n1` [compound 084, 3-((3-(1-(pyridin-3-ylmethyl)-1H-pyrazol-3-yl)-[1,1′-biphenyl]-4-yl)amino)propanenitrile] it is 4.70 to 6.00.
In turn, `N#CCNc1ccc(-c2ccccc2)cc1-c1ccn(Cc2cccnc2)n1` [compound 085, 2-((3-(1-(pyridin-3-ylmethyl)-1H-pyrazol-3-yl)-[1,1′-biphenyl]-4-yl)amino)acetonitrile] gave a pEC50 of over 6.00.
Molecule `CNS(=O)(=O)CCNc1ccc(-c2cccc(C(F)(F)F)c2)cc1-c1ccn(Cc2cccnc2)n1` [compound 089] showed a pEC50 of over 6.00.
With `CNS(=O)(=O)CCNc1ccc(-c2cccc(OC)c2)cc1-c1ccn(Cc2cccnc2)n1` [compound 090, 2-((3′-methoxy-3-(1-(pyridin-3-ylmethyl)-1H-pyrazol-3-yl)-[1,1′-biphenyl]-4-yl)amino)-N-methylethane-1-sulfonamide], the negative logarithm of the EC50 (pEC50) is over 6.00.
The figure for `CNS(=O)(=O)CCNc1ccc(-c2cccc(Cl)c2)cc1-c1ccn(Cc2cccnc2)n1` [compound 091, 2-((3′-chloro-3-(1-(pyridin-3-ylmethyl)-1H-pyrazol-3-yl)-[1,1′-biphenyl]-4-yl)amino)-N-methylethane-1-sulfonamide] is over 6.00; for `CNS(=O)(=O)CCNc1ccc(-c2cc(F)ccc2F)cc1-c1ccn(Cc2cccnc2)n1` [compound 092, 2-((2′,5′-difluoro-3-(1-(pyridin-3-ylmethyl)-1H-pyrazol-3-yl)-[1,1′-biphenyl]-4-yl)amino)-N-methylethane-1-sulfonamide] it is over 6.00; for `CNS(=O)(=O)CCNc1ccc(-c2cccnc2)cc1-c1ccn(Cc2cccnc2)n1` [compound 094, N-methyl-2-((4-(pyridin-3-yl)-2-(1-(pyridin-3-ylmethyl)-1H-pyrazol-3-yl)phenyl)amino)ethane-1-sulfonamide] it is 4.70 to 6.00.
For the molecule `CNS(=O)(=O)CCNc1ccc(C2CCCCC2)cc1-c1ccn(Cc2cccnc2)n1` [compound 095, 2-((4-cyclohexyl-2-(1-(pyridin-3-ylmethyl)-1H-pyrazol-3-yl)phenyl)amino)-N-methylethane-1-sulfonamide], the pEC50 was over 6.00.
As for `CNS(=O)(=O)CCNc1ccc(-c2ccn(C)n2)cc1-c1ccn(Cc2cccnc2)n1` [compound 096, N-methyl-2-((4-(1-methyl-1H-pyrazol-3-yl)-2-(1-(pyridin-3-ylmethyl)-1H-pyrazol-3-yl)phenyl)amino)ethane-1-sulfonamide], the figure is 4.70 to 6.00; as for `CNS(=O)(=O)CCNc1ccc(-c2ccc(C(F)F)cc2)cc1-c1ccn(Cc2cccnc2)n1` [compound 097, 2-((4′-(difluoromethyl)-3-(1-(pyridin-3-ylmethyl)-1H-pyrazol-3-yl)-[1,1′-biphenyl]-4-yl)amino)-N-methylethane-1-sulfonamide], over 6.00; as for `CNS(=O)(=O)CCNc1ccc(-c2ccc(OC(F)(F)F)cc2)cc1-c1ccn(Cc2cccnc2)n1` [compound 098, N-methyl-2-((3-(1-(pyridin-3-ylmethyl)-1H-pyrazol-3-yl)-4′-(trifluoromethoxy)-[1,1′-biphenyl]-4-yl)amino)ethane-1-sulfonamide], over 6.00.
`CNS(=O)(=O)CCNc1ccc(-c2ccc(OC(F)F)cc2)cc1-c1ccn(Cc2cccnc2)n1` [compound 099, 2-((4′-(difluoromethoxy)-3-(1-(pyridin-3-ylmethyl)-1H-pyrazol-3-yl)-[1,1′-biphenyl]-4-yl)amino)-N-methylethane-1-sulfonamide] gave a pEC50 of over 6.00.
For the molecule `CNS(=O)(=O)CCNc1ccc(-c2ccc(S(F)(F)(F)(F)F)cc2)cc1-c1ccn(Cc2cccnc2)n1` [compound 100, 2-((4′-(2,2-difluoro-2-methyl-2l6-trifluoran-2-yl)-3-(1-(pyridin-3-ylmethyl)-1H-pyrazol-3-yl)-[1,1′-biphenyl]-4-yl)amino)-N-methylethane-1-sulfonamide], the pEC50 was over 6.00.

The values are drawn from patent US12552772B2, “2-pyrazole anilines and related analogs for inhibiting YAP/TAZ-TEAD” (KATHOLIEKE UNIVERSITEIT LEUVEN, priority 2021, dated 2026).
